# According to patent US9675591B2, “Methods for treating seizure disorders and pain” (THE REGENTS OF THE UNIVERSITY OF CALIFORNIA, priority 2013, dated 2017):
# Several values for one entry are separate records, joined by “and”; a condition that tells them apart may be missing. Equal values may be shown once. Read-outs that look alike come from different tables or passages of the source.
# Assays:
# MES-induced seizures = test: Maximal electroshock (MES) seizure test, rats (ASP, methylcellulose suspension); format: in vivo; conditions: for ED50: Rattus norvegicus, read-out: ED50, seizure protection in the MES test
# Experimental: SKA-19 was tested under the auspices of the National Institutes of Health's Anticonvulsant Screening Program (ASP). Experiments were performed in male albino CF (Carworth Farms) No. 1 mice or Sprague-Dawley rats according to the established protocols of the ASP (White et al., 2002). SKA-19 was suspended in 0.5% methylcellulose and administered in a volume that permits accuracy of dosage without excessively contributing to total body fluid (0.01 ml/g body weight for mice and 0.04 ml/10 g body weight for rats).
# Animals received an electrical stimulus of 0.2 s duration (50 mA in mice and 150 mA in rat at 60 Hz) delivered via corneal electrodes primed with an electrolyte solution containing 0.5% tetracaine. Animals were restrained by hand and released immediately after stimulation to permit observation of the seizure throughout its entire course. In the initial screens to identify anticonvulsant activity mice were tested at 30 minutes and 4 hours following doses of 3, 10, 30, 100 and 300 mg/kg of SKA-19 and rats tested at time intervals between 0.25 and 4 hours following a standard oral dose of 30 mg/kg. In the subsequent, more quantitative tests at least four doses of SKA-19 (n=8 per dose) were tested at the previously determined time of peak effect (TPE). Abolition of hindlimb tonic extension indicates the test compound's ability to inhibit MES-induced seizure spread. Tonic extension is considered abolished if the hind limbs are not fully extended at 180° with the body.
# [1] = Acute toxicity, rotorod test in mice; format: in vivo; conditions: mouse, in vivo, ip, mice, i.p., suspension, read-out: TD50, ability of mice to stay on the rotorod
# Experimental: (§1) Abnormal neurological status in mice following SKA-19 administration was evaluated with the rotorod test. When a normal mouse is placed on a rod 1 inch in diameter that rotates at a speed of 6 rpm, the mouse can maintain equilibrium for a long time. Inability of the mouse to stay on the rotating rod in three trials for 1 min is taken as an indication of motor impairment. […] Mice were placed on a horizontally oriented grid (consisting of parallel 1.5-mm diameter rods situated 1 cm apart), and the grid was inverted. Animals that fell from the grid within 10 s were scored as impaired.
# mice = test: Acute toxicity, rotorod test in mice; format: in vivo
# Experimental: as §1
# [2] = Acute toxicity, neurological status of rats (positional sense, muscle tone, gait and stance); format: in vivo; conditions: Sprague-Dawley, rat, in vivo, rats
# Experimental: (§2) Abnormal neurological status in rats was evaluated by the positional sense test, the muscle tone test, and the gait and stance test. Inability of the rat to perform normally in at least two of these tests is taken as an indication of some neurological deficit.
# rats = test: as above; format: in vivo
# Experimental: as §2
# 6 Hz seizures = test: 6 Hz seizure test, compounds given i.p. as solution; format: in vivo; conditions: Mus musculus, ip, 10 min, mice, values stated uncertain
# Experimental: The mouse maximal electroshock (MES) and 6 Hz seizure models were used. Motor toxicity was assessed using a modification of the horizontal screen test. ED50 values in the seizure models and TD50 values in the toxicity test were determined by nonlinear fitting of dose-response curves. […] Drugs solutions were injected intraperitoneally 10 min prior to administration of the electrical stimulus in a volume of 10 ml/kg body weight.
# formalin-induced pain = test: Formalin pain assay; format: in vivo, mice; conditions: 5 mg/kg
# Experimental: SKA-19 was administered at a dose of 5 mg/kg to CF-1 male mice. At the previously determined time of peak anticonvulsant effect 0.5% formalin was injected sub-dermally into the plantar surface of the right hind foot. For each animal the amount of time (s) spent licking the affected hind paw in a two minute period was recorded at 5 minute intervals and continued for 45 minutes through both the acute and inflammatory phase.
# Nav1.2 = Nav1.2 (Mus musculus (Mouse), UniProt B1AWN6); test: Voltage-clamp, Nav1.2 currents in N1E-115 neuroblastoma cells; format: cell-based
# Experimental: All experiments were conducted at room temperature (22-24° C.) with an EPC-10 amplifier and Pulse software (HEKA, Lambrecht/Pfalz, Germany) in the whole-cell mode of the patch-clamp technique. Human embryonic kidney (HEK)-293 cell lines stably expressing hNav1.1, hNav1.5, hNav1.7 channels (generously provided by Dr. Christopher Lossin, University of California Davis), hNav1.4 (Frank Lehmann-Horn, University of Ulm), or hKv2.1 channels (James Trimmer, University of California Davis) were bathed in extracellular solution containing (in mM): 160 NaCl; 4.5 KCl; 1 MgCl2; 2 CaCl2; 10 HEPES [pH was adjusted to 7.4 using NaOH (310 mOsm)]. Pipettes were filled with intracellular solution containing (in mM): 145 KF; 2 MgCl2; 10 ethylene glycol tetraacetic acid; 10 HEPES (pH adjusted to 7.2 with KOH; 300 mOsm). Neuroblastoma N1E-115 cells (ATCC, Manassa, Va., USA) expressing Nav1.2 were patched with a CsF internal solution consisting of (in mM): 10 NaF; 110 CsF; 20 CsCl; 2 ethylene glycol tetraacetic acid; 10 HEPES (CsOH to pH 7.35; 300 mOsm). All pipette tip resistances were 2-4 MΩ. Series resistances of 3-10 MΩ were compensated 40-80%. All cells were voltage-clamped to a holding potential of −90 mV unless otherwise specified. The sampling frequency was 5 kHz. Na^+ currents were elicited by 30-ms pulse to 0 mV from −90 mV applied every 10 s. Kv2.1 currents were elicited by 200-ms voltage steps from −90 to 40 mV applied every 10 s.
# Nav1.2, sequence (B1AWN6 whole entry): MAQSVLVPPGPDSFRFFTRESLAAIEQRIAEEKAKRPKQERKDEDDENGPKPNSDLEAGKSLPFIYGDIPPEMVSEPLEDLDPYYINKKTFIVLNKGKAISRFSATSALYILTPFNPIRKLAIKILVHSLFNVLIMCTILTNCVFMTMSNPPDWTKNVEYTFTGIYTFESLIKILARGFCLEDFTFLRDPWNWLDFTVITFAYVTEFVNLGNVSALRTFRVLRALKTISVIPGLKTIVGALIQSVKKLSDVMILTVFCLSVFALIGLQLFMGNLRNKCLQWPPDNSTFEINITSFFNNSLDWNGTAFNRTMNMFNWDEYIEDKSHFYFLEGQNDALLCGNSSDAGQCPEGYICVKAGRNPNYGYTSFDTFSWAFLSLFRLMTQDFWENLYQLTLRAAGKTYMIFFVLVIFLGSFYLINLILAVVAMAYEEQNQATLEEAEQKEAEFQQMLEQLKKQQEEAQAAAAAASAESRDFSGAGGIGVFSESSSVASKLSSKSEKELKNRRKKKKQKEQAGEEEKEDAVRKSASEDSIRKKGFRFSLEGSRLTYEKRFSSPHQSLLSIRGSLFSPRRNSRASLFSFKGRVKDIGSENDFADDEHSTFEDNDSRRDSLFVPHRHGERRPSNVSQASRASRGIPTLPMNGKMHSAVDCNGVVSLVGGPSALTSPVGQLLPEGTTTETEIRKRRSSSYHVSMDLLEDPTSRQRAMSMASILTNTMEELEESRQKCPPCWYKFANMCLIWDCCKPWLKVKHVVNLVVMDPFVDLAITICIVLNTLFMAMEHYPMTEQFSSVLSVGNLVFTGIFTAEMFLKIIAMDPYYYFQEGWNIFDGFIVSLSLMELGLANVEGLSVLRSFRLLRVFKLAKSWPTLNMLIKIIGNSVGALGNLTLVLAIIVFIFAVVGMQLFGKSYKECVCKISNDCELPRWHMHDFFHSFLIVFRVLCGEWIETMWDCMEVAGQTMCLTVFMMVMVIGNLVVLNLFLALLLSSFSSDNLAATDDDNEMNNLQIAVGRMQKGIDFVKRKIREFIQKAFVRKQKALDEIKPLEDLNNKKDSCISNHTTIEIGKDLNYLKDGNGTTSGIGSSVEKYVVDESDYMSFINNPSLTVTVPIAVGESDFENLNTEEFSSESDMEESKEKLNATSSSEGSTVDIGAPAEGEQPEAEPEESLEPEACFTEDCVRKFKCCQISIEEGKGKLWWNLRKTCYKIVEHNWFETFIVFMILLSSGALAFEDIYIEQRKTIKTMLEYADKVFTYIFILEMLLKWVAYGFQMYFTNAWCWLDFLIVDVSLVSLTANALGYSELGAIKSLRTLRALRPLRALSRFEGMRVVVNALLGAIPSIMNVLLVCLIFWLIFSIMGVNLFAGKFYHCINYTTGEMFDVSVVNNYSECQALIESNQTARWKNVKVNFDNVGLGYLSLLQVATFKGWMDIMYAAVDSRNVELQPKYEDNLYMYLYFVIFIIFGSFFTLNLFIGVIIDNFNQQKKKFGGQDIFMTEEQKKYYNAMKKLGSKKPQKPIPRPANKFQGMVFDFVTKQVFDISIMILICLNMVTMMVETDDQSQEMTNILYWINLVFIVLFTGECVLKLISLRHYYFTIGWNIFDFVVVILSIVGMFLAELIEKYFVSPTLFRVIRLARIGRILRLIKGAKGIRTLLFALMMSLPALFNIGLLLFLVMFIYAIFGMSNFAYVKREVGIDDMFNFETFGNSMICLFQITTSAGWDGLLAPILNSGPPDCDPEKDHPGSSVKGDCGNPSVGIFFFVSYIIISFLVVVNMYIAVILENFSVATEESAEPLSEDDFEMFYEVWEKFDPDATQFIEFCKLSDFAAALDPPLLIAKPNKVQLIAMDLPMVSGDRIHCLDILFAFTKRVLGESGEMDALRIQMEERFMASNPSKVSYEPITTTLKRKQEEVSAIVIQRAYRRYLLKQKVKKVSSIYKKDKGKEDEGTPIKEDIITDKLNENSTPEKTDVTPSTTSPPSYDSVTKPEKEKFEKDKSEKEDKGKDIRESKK
smiles,measurement,setting,value
"Nc1nc2ccc(SC(F)(F)F)cc2s1 [SKA-19, 6-((trifluoromethyl)thio)benzo[d]thiazol-2-amine]",ED50,"MES-induced seizures; ip, 1 h time point",1.6 mg/kg
same,ED50,MES-induced seizures; oral (SKA-19: 4 h time point),2.33 mg/kg
same,protective index PI (TD50/ED50),MES-induced seizures; i.p.,8.9
same,protective index PI (TD50/ED50),MES-induced seizures; oral,~33 and 33.2
same,"protection from MES induced seizures, initial screen","MES-induced seizures; oral 30 mg/kg, 0.25, 0.5, 1, 2 and 4 h",fully protected
same,TD50,[1]; CF No. 1 (Carworth Farms),29.8 mg/kg
same,TD50 at 2 h,[1]; albino CF No. 1 (Carworth Farms),29.8 mg/kg
same,TD50,[1],29.7 mg/kg
same,"neurological deficit, rotorod",mice; 100 mg/kg,inability to clasp the rotorod
same,mice that died,mice; 100 mg/kg i.p.,two out of 8
same,neurological deficit / lethality,mice; 300 mg/kg,sedation or death
same,ability of mice to stay on the rotorod,"mice; 0.5 and 4 hours after 3, 10 and 30 mg/kg",no impairment
same,TD50,[2]; ip,14.3 mg/kg
same,TD50 at 1 h,[2]; ip,14.3 mg/kg
same,TD50 at 4 h,[2]; oral,77.4 mg/kg
same,deaths,"rats; rat, in vivo",No deaths
same,neurotoxicity,"rats; rats, oral 30 mg/kg, 0.25-4 h",without inducing neurotoxicity
same,ED50,6 Hz seizures,22.5 mg/kg
same,"reduction of paw licking (area under curve), Phase II",formalin-induced pain; 2 hours prior to formalin,31.3%
same,"reduction of total paw licking (area under curve), Phase I",formalin-induced pain; 2 hours prior to formalin,54.5%
same,time spent licking the affected hindpaw,formalin-induced pain; 2 h prior to formalin,significantly decreased
same,IC50,"Nav1.2; 20 Hz, read-out: IC50, Nav1.2",520 ± 230 nM
same,IC50,"Nav1.2; -70 mV holding potential, read-out: IC50, Nav1.2",860 ± 700 nM
same,IC50,"Nav1.2; -120 mV holding potential, read-out: IC50, Nav1.2",9500 ± 1720 nM
same,IC50,"Nav1.2; changed holding potential, read-out: IC50, Nav1.2",860 nM
same,IC50,"Nav1.2; holding potential -90 mV, 0.1 Hz, read-out: EC50 or IC50, Nav1.2",~7900 nM and 7900 nM
same,IC50,"Nav1.2; pulse frequency 20 Hz, read-out: IC50, Nav1.2",520 nM
